Measured values from patent US20240342292A1, “Compounds for the Degradation of EGFR Kinase” (BeiGene Switzerland GmbH, priority 2021, published 2024).

Assays:
Del19/T790M/C797S EGFR = assay: EGFR degradation HTRF assay in H1975-clone #28 (DTC) cells; assay type: cell-based; conditions: H1975 # 28 DTC (Del19/T790M/C797S), 16h treatment; for DC50: HTRF; for Dmax (%): maximum percentage of degradation
Source text: (§1) H1975-clone #28(Del19/T790M/C797S, or abbr: DTC), H1975-clone #23(Del19/C797S, or abbr: DC), H1975-clone #25(L858R/T790M/C797S, or abbr: LTC) and H1975-clone #8 (L858R/C797S, or abbr: LC). EGFR-Del19:T790M/C797S, EGFR-Del19/C797S, EGFR-L858R/T790M/C797S and EGFR-L858R/C797S were stably expressed in H1975 cell lines by lentivirus-mediated over-expression, respectively. The EGFR over-expressed cells then underwent knockout, in which the EGFR targeting sgRNA was designed to only target the endogenous EGFR copies and preserve the exogenous EGFR copies. Followed by the knockout, the edited H1975 cells were seeded in 96 well plates at the concentration of […], cultured for about 2 weeks to allow single clones formation. The formed clones were screened by DNA sequencing and whole exon sequencing analysis for the desired edition. H1975-clone #28, H1975-clone #23, H1975-clone #25 and H1975-clone #8 were finally confirmed as homozygous Del19/T790M/C797S EGFR, Dell9/C797S EGFR, L858R/T790M/C797S EGFR and L858R/C797S EGFR clones, respectively.
(§2) H1975-#25, H1975-#28, H1975-#23 and H1975-#8 cells are treated with compounds diluted in 0.2% DMSO cell culture medium on day 2, incubate for 16h, 37° C., 5% CO2. the final concentration of compounds in all assay is start with 10 uM, 5-fold dilution, total 8 doses were included.
(§3) After 16h treatment, add HTRF lysis buffer to each well; seal the plate and incubate 1 hour at room temperature on a plate shaker; Once the cells are lysed, 16 μL of cell lysate are transferred to a PE 384-well HTRF detection plate; 4 μL of pre-mixed HTRF antibodies are added to each well; Cover the plate with a plate sealer, spin 1000 rpm for 1 min, Incubate overnight at room temperature; Read on BMG PheraStar with HTRF protocol (337 nm-665 nm-620 nm).
(§4) The IC50 (DC50) value of a compound can be obtained by fitting the following equation
(§5) Y=Bottom+(TOP−Bottom)/(1+((IC50/X)^hillslope))
(§6) Wherein, X and Y are known values, and IC50, Hillslope, Top and Bottom are the parameters obtained by fitting with software. Y is the inhibition percentage (calculated from the equation), X is the concentration of the compound: IC50 is the concentration of the compound when the 50% inhibition is reached. The smaller the IC50 value is, the stronger the inhibitory ability of the compound is. Vice versa, the higher the IC50 value is, the weaker the ability the inhibitory ability of the compound is: Hillslope represents the slope of the fitted curve, generally around 1*; Bottom represents the minimum value of the curve obtained by data fitting, which is generally 0%±20%; Top represents the maximum value of the curve obtained by data fitting, which is generally 100%±20%. The experimental data were fitted by calculating and analyzing with Dotmatics data analysis software.

L858R/T790M/C797S EGFR = target: T1, L858R/T790M/C797S EGFR (Homo sapiens, UniProt P00533, C797S/L858R/T790M); assay: EGFR degradation HTRF assay in H1975-clone #25 (LTC) cells; assay type: cell-based; conditions: 16h treatment; for DC50: H1975 # 25-LTC (L858R/T790M/C797S), HTRF; for Dmax: NCI-H1975, H1975 # 25-LTC (L858R/T790M/C797S), maximum percentage of degradation
T1 construct: expressed in transfected cells; host or cells: H1975 clone #25 (lentiviral over-expression, endogenous EGFR knocked out by sgRNA)
T1 sequence (P00533 25-1210 T790M/C797S/L858R): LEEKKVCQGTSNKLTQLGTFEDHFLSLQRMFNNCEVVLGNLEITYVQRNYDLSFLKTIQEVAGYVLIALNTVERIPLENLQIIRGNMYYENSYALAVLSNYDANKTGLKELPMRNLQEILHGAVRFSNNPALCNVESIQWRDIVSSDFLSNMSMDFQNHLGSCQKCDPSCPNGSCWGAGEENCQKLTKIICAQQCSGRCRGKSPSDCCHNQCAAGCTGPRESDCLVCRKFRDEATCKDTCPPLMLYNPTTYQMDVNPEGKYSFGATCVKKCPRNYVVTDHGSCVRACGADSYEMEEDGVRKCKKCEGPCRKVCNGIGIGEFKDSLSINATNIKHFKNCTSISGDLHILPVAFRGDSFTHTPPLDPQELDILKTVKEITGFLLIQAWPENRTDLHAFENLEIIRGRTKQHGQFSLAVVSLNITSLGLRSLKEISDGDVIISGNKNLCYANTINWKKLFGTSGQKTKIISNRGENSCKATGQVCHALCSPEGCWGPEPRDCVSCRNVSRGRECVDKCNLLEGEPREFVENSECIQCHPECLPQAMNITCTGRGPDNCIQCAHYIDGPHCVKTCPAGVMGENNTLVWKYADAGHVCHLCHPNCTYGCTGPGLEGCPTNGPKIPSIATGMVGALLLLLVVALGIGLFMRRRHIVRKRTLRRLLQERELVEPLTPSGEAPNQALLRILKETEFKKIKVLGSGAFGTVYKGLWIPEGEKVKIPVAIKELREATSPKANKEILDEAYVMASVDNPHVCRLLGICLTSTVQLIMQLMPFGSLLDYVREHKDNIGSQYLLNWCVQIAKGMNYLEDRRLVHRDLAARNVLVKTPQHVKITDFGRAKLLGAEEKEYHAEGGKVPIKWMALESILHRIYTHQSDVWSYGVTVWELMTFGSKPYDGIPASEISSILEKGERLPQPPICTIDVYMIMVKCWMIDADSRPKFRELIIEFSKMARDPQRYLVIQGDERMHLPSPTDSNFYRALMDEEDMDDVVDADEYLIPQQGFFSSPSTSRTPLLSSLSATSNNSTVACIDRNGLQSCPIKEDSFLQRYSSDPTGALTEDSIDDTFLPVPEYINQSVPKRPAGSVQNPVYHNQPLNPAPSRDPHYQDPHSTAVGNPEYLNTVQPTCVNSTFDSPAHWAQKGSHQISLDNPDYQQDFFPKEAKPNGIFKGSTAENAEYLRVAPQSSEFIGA
Source text: as §1, §2, §3, §4, §5, §6

Compound | DC50 (Del19/T790M/C797S EGFR) [nM] | Dmax (%) (Del19/T790M/C797S EGFR) | DC50 (L858R/T790M/C797S EGFR) [nM] | Dmax (L858R/T790M/C797S EGFR) [%]
CO[C@@H]1CN(CCc2cc(F)c([C@H]3CCC(=O)NC3=O)c(F)c2)CC[C@H]1NC(=O)c1ccc2c(c1)N1C[C@H](C)CCCOc3c(cnn3C)-c3cc(cc(C)n3)C(=O)/N=C/1N2 [Example 253, (R,E)-N—((3R,4R)-1-(4-((R)-2,6-dioxopiperidin-3-yl)-3,5-difluorophenethyl)-3-methoxypiperidin-4-yl)-1^1,2^6,7-trimethyl-3-oxo-5^2,5^3-dihydro-1^1H,5^1H-11-oxa-4-aza-5(2,1)-benzo[d]imidazola-2(2,4)-pyridina-1(4,5)-pyrazolacycloundecaphane-5^6-carboxamide] | 0.59 | 82.5 | 0.289 | 93.8
Cc1cc2cc(n1)-c1cnn(C)c1OCCC[C@@H](C)CN1/C(=N/C2=O)Nc2cc(C)c(C(=O)N(C)C3CCN(CCc4cc(F)c([C@H]5CCC(=O)NC5=O)c(F)c4)CC3)cc21 [Example 336, (R,E)-N-(1-(4-((R)-2,6-dioxopiperidin-3-yl)-3,5-difluorophenethyl)piperidin-4-yl)-N,1^1,2^6,5^5,7-penta methyl-3-oxo-5^2,5^3-dihydro-1^1H,5^1H-11-oxa-4-aza-5(2,1)-benzo[d]imidazola-2(2,4)-pyridina-1(4,5)-pyrazolacycloundecaphane-5^6-carboxamide] | 0.304 | 72.28 | 0.386 | 88.4
Cc1cc2cc(n1)-c1cnn(C)c1OCCC[C@@H](C)CN1/C(=N/C2=O)Nc2ccc(N3CCN(C4CCN(c5cc(F)c([C@H]6CCC(=O)NC6=O)c(F)c5)CC4)C[C@H]3C)cc21 [Example 384, (R)-3-(2,6-difluoro-4-(4-((R)-3-methyl-4-((R,E)-1^1,2^6,7-trimethyl-3-oxo-5^2,5^3-dihydro-1^1H,5^1H-11-oxa-4-aza-5(2,1)-benzo[d]imidazola-2(2,4)-pyridina-1(4,5)-pyrazolacycloundecaphane-5^6-yl)piperazin-1-yl)piperidin-1-yl)phenyl)piperidine-2,6-dione] | 1.5 | 75.83 | 1.67 | 87.7
Cc1cc2cc(n1)-c1cnn(C)c1OCCC[C@@H](C)CN1/C(=N/C2=O)Nc2ccc(N3CCN(CCc4cc(F)c([C@H]5CCC(=O)NC5=O)c(F)c4)CC3=O)cc21 [Example 366, (R)-3-(2,6-difluoro-4-(2-(3-oxo-4-((R,E)-1^1,2^6,7-trimethyl-3-oxo-5^2,5^3-dihydro-1^1H,5^1H-11-oxa-4-aza-5(2,1)-benzo[d]imidazola-2(2,4)-pyridina-1(4,5)-pyrazolacycloundecaphane-5^6-yl)piperazin-1-yl)ethyl)phenyl)piperidine-2,6-dione] | 0.539 | 84.74 | 0.372 | 91.8
CCN(C(=O)c1ccc2c(c1)N1C[C@H](C)CCCOc3c(cnn3C)-c3cc(cc(C)n3)C(=O)/N=C/1N2)C1CCN(CCc2cc(F)c([C@H]3CCC(=O)NC3=O)c(F)c2)CC1 [Example 241, (R,E)-N-(1-(4-((R)-2,6-dioxopiperidin-3-yl)-3,5-difluorophenethyl)piperidin-4-yl)-N-ethyl-1^1,2^6,7-trimethyl-3-oxo-5^2,5^3-dihydro-1^1H,5^1H-li-oxa-4-aza-5(2,1)-benzo[d]imidazola-2(2,4)-pyridina-1(4,5)-pyrazolacycloundecaphane-5^4-carboxamide] | 0.328 | 76.68 | 0.403 | 87.7
Cc1cc2cc(n1)-c1cnn(C)c1OCCC[C@@H](C)CN1/C(=N/C2=O)Nc2ccc(CN3CCN(C[C@@H]4CCN(c5cc(F)c([C@H]6CCC(=O)NC6=O)c(F)c5)C4)CC3)cc21 [Example 88, (R)-3-(2,6-difluoro-4-((S)-3-((4-(((R,E)-1^1,2^6,7-trimethyl-3-oxo-5^2,5^3-dihydro-1^1H,5^1H-1l-oxa-4-aza-5(2,1)-benzo[d]imidazola-2(2,4)-pyridina-1(4,5)-pyrazolacycloundecaphane-5^6-yl)methyl)piperazin-1-yl)methyl)pyrrolidin-1-yl)phenyl)piperidine-2,6-dione] | – | – | 1.5 | 78.5
Cc1cc2cc(n1)-c1cnn(C)c1OCCC[C@@H](C)CN1/C(=C/C2=O)Nc2ccc(CN3CCC(N4CCC(c5cc(F)c([C@H]6CCC(=O)NC6=O)c(F)c5)CC4)CC3)cc21 [Example 16, (R)-3-(2,6-difluoro-4-(1′-(((R,E)-1^1,2^6,7-trimethyl-3-oxo-5^2,5^3-dihydro-1^1H,5^1H-11-oxa-4-aza-5(2,1)-benzo[d]imidazola-2(2,4)-pyridina-1(4,5)-pyrazolacycloundecaphane-5^6-yl)methyl)-[1,4′-bipiperidin]-4-yl)phenyl)piperidine-2,6-dione] | – | – | 10.6 | 82.1
Cc1cc2cc(n1)-c1cnn(C)c1OCCC[C@@H](C)CN1/C(=N/C2=O)Nc2ccc(CN3CCN(C[C@H]4CCN(c5cc(F)c([C@H]6CCC(=O)NC6=O)c(F)c5)C4)CC3)cc21 [Example 90, (R)-3-(2,6-difluoro-4-((R)-3-((4-(((R,E)-1^1,2^6,7-trimethyl-3-oxo-5^2,5^3-dihydro-^1H,5^1H-11-oxa-4-aza-5(2,1)-benzo[d]imidazola-2(2,4)-pyridina-1(4,5)-pyrazolacycloundecaphane-5^6-yl)methyl)piperazin-1-yl)methyl)pyrrolidin-1-yl)phenyl)piperidine-2,6-dione] | – | – | 1.1 | 86.9
Cc1cc2cc(n1)-c1cnn(C)c1OCCC[C@@H](C)CN1/C(=N/C2=O)Nc2ccc(CN3CCC4(CC3)CCN(CC3CCN(c5ccc6c(c5)CN(C5CCC(=O)NC5=O)C6=O)CC3)CC4)cc21 (stereo partly drawn) [Example 21, 3-(1-oxo-5-(4-((9-(((R,E)-1^1,2^6,7-trimethyl-3-oxo-5^2,5^3-dihydro-1^1H,5^1H-11-oxa-4-aza-5(2,1)-benzo[d]imidazola-2(2,4)-pyridina-1(4,5)-pyrazolacycloundecaphane-5^6-yl)methyl)-3,9-diazaspiro[5.5]undecan-3-yl)methyl)piperidin-1-yl)isoindolin-2-yl)piperidine-2,6-dione] | – | – | 2.7 | 77.8
Cc1cc2cc(n1)-c1cnn(C)c1OCCC[C@@H](C)CN1/C(=N/C2=O)Nc2ccc(CN3CCN(CCc4cc(F)c([C@H]5CCC(=O)NC5=O)c(F)c4)[C@H](C)C3)cc21 [Example 107, (R)-3-(2,6-difluoro-4-(2-((R)-2-methyl-4-(((R,E)-1^1,2^6,7-trimethyl-3-oxo-5^2,5^3-dihydro-1^1H,5^1H-11-oxa-4-aza-5(2,1)-benzo[d]imidazola-2(2,4)-pyridina-1(4,5)-pyrazolacycloundecaphane-5^6-yl)methyl)piperazin-1-yl)ethyl)phenyl)piperidine-2,6-dione] | – | – | 0.6 | 82.5
Cc1cc2cc(n1)-c1cnn(C)c1OCCC[C@@H](C)CN1/C(=N/C2=O)Nc2ccc(CN3CC4(CCN(CCc5cc(F)c([C@H]6CCC(=O)NC6=O)c(F)c5)CC4)C3)cc21 [Example 93, (R)-3-(2,6-difluoro-4-(2-(2-(((R,E)-1^1,2^6,7-trimethyl-3-oxo-5^2,5^3-dihydro-1^1H,5^1H-11-oxa-4-aza-5(2,1)-benzo[d]imidazola-2(2,4)-pyridina-1(4,5)-pyrazolacycloundecaphane-5^6-yl)methyl)-2,7-diazaspiro[3.5]nonan-7-yl)ethyl)phenyl)piperidine-2,6-dione] | – | – | 1.9 | 92.7
